# Measurements published in EP4721736A1, “PHARMACEUTICAL COMPOSITION FOR EFFECTIVELY DELAYING AND TREATING MYOPIA” (priority 2023, dated 2024).
# Where a name gives a salt, the structure may show the parent alone.
# Key:
# [1] = test system: negative lens-induced myopia; experiment: Negative lens-induced myopia (LIM) model in guinea pigs: interocular difference in refraction; settings: for refraction indicators vs vehicle group: after the end of the administration period (7 days); for refraction indicators vs vehicle group / efficacy (refraction) in comparison between groups: 0.4%, 100 µL daily; for efficacy (refraction) in comparison between groups: day 3 of administration
# From the text: (§1) Form-deprivation and lens-induced myopia models in guinea pigs are classic and recognized myopic animal models in the art, and may be used for evaluating efficacy and safety of myopia treatment drugs, and methods for establishing such models are well-known to those skilled in the art. For animal modeling and administration routes in the present application, reference is made to previously published scientific documents by the research group (Sen Zhang, Invest Ophthalmol Vis Sci. 2019 Jul 1; 60(8):3074-3083.; Miaozhen Pan, Exp Eye Res. 2021 Jan; 202:108332.).
# After individuals with significant ocular diseases or abnormalities were eliminated from healthy 3-week-old tricolor guinea pigs (both males and females), by detecting refraction (using an infrared eccentric photorefraction device) and the eye axis (using A-scan ultrasonography), animals with refractive power between 3 diopters and 8.5 diopters (D), an interocular difference in refraction not exceeding 2 D, and both interocular differences in vitreous chamber depth and axial length not exceeding 0.05 mm were selected. These animals were randomly divided into the following 5 groups. • 1. Lens induction + vehicle control group (Control): monocular wear of a -4 D lens, with 100 µL of vehicle (DMSO:PEG300:Tween80:0.9% normal saline = 1:45:5:49) administrated to the lens-wearing eye daily for 1 week, and the number of samples = 11; • 2. Lens induction + R-alpha lipoic acid experimental group (R.ALA): monocular wear of a -4 D lens, with 100 µL of 0.4% R-alpha lipoic acid administrated to the lens-wearing eye daily for 1 week, and the number of samples = 15; • 3. Lens induction + S-alpha lipoic acid experimental group (S.ALA): monocular wear of a -4 D lens, with 100 µL of 0.4% S-alpha lipoic acid administrated to the lens-wearing eye daily for 1 week, and the number of samples = 13; • 4. Lens induction + dihydrolipoic acid experimental group (DHLA): monocular wear of a -4 D lens, with 100 µL of 0.4% dihydrolipoic acid administrated to the lens-wearing eye daily for 1 week, and the number of samples = 14; • 5.
# Beginning on the day of modeling, the corresponding vehicle or drug was administrated to the experimental eye (lens-wearing eye) daily between 9:00 AM and 10:00 AM via periocular subconjunctival injection at an injection volume of 100 µL, once daily for 1 week. All procedures for negative lens-induced myopia modeling, peribulbar injection administration, detection of parameters such as refraction, and data processing for all the subjects were consistent with the schemes previously used by the research group (CN114796205B). At the beginning, on day 3, and at the end of the LIM model efficacy experiment, the refraction was detected in animal subjects. The statistical basis was the difference between the experimental eye (lens-wearing eye) and the contralateral eye of the same subject.
# [2] = test system: negative lens-induced myopia; experiment: Choroidal thickness (OCTA) in the LIM myopia model; format: in vivo, guinea pigs; settings: after the 7-day administration experiment of Example 7; vs vehicle control group
# Method: Using the animal subjects in Example 7, choroidal parameters were detected after completion of the experiment (a few animals died during the measurement due to reasons unrelated to the test drugs, so these samples were eliminated). Specifically, choroidal thickness was measured in the LIM myopia model animals after completion of the 7-day administration experiment. Commercially available OCTA (Spectralis HRA + OCT, OCTA, Heidelberg, Germany) modified to be more suitable for animal eyeballs was used to detect the choroidal thickness. Before detection, the guinea pigs were fully anesthetized.
# form-deprivation myopia [3] = experiment: Form-deprivation myopia model (FDM) in guinea pigs: interocular differences in refraction and eye axis parameters; settings: for Difference in Refraction (Refraction, D) Mean / Difference in Axial Length (AL, mm) Mean / Difference in Vitreous Chamber Depth (VCD, mm) Mean: FD + 0.94% lipoic acid, experimental eye vs contralateral eye; for Difference in Refraction (Refraction, D) Mean: periocular subconjunctival injection 100 µL once daily; for Difference in Axial Length (AL, mm) Mean / Difference in Vitreous Chamber Depth (VCD, mm) Mean: subconjunctival injection once daily; for myopia inhibition rate: 0.94% lipoic acid compared to the vehicle control group
# From the text: as §1
# After individuals with significant eye diseases or abnormalities were eliminated from three-week-old tricolor guinea pigs, by detecting refraction (using an infrared eccentric photorefraction device) and the eye axis (using A-scan ultrasonography), animals with refractive power between 3 and 8 diopters (D), an interocular difference in refraction not exceeding 2 D, and interocular differences in vitreous chamber depth and axial length not exceeding 0.05 mm were selected. These animals were randomly divided into two groups: an FD + vehicle control group (1% DMSO + 49% PEG300 + 50% normal saline, by volume) and an FD + 0.94% lipoic acid drug treatment group. At 8:00 AM on day 1 of the experiment, form deprivation was induced in the guinea pigs using a mask method, where the right eye (experimental eye) was occluded and the left eye was left unoccluded (contralateral eye). The FD induction was maintained throughout the entire period of the lipoic acid efficacy experiment, with the hoods only briefly removed for drug administration or ocular examination (for example, refraction detection). Starting on the first day of the efficacy experiment, position of the hood was checked daily at 8:00 AM, 12:00 PM, and 7:00 PM, as well as prior to administration. Individuals with hoods fell off more than three times during the administration period were excluded. Beginning on the day of modeling, the corresponding vehicle or drug (lipoic acid formulation) was administrated to the experimental eye daily between 9:00 AM and 10:00 AM via periocular subconjunctival injection at an injection volume of 100 µL. The vehicle or drug was administrated once daily for two consecutive weeks. Interocular refraction and eye axis parameters of all subjects were measured at the start of the efficacy experiment, 1 week after administration, and after the final administration. All data collection and processing methods were the same as those previously published by the laboratory of the inventors (Pan M, Zhao F, Xie B, et al. Dietary omega-3 polyunsaturated fatty acids are protective for myopia. Proc Natl Acad Sci U S A 2021 Oct 26; 118(43):e2104689118). Statistical basis was the difference between the experimental eye and the contralateral eye in the same subject.
# Utilizing the same efficacy evaluation system for myopia treatment in the guinea pig form-deprivation model as described in Example 2, the prevention and control effects of mexidol, pyridoxol, astaxanthin, and blueberry fruit extract on myopia were compared against lipoic acid. The administration route was periocular subconjunctival injection.
# The same efficacy evaluation system for myopia treatment in the guinea pig form-deprivation model as described in Example 2 was utilized to evaluate the myopia treatment effects of blueberry fruit extract + lipoic acid compound formulations at different prescription ratios. The administration route was periocular subconjunctival injection.
# form-deprivation myopia [4] = experiment: Choroidal thickness (OCT) in the guinea pig form-deprivation model; format: in vivo, guinea pigs
# Method: Choroidal thickness of all animal subjects in Example 2 were detected using Spectralis HRA + OCT (Heidelberg Engineering, Heidelberg, Germany) for 30 minutes to 60 minutes after the final administration (of either the vehicle or lipoic acid).
# After completion of the experiment, the choroidal thickness was detected in animals in the two control groups and the 0.5% lipoic acid choline ester eye drop administration group in Example 6 (some animals died during the measurement due to reasons unrelated to the test drugs, so the corresponding samples were eliminated).
# [5] = test system: age-related macular degeneration; settings: oral administration; Kim et al. 2020; cited from earlier work
# myopia [6] = settings: higher concentration of atropine; cited from earlier work
# presbyopia [7] = settings: interim analysis, presbyopia treatment; cited from earlier work
# presbyopia [8] = settings: cited from earlier work
# myopia [9] = settings: wild-type mouse myopia models; cited from earlier work
# [10] = test system: form-deprivation-induced myopia; settings: mice with pigmentary degeneration of retina caused by a gene mutation (rd10); Landis et al. 2016; cited from earlier work
smiles,measurement,setting,value
"O=C(O)CCCC[C@@H](S)CCS (racemic) [dihydrolipoic acid, Dihydrolipoic acid]",refraction indicators vs vehicle group,[1],extremely significant differences compared with the vehicle group
same,"anterior chamber depth and lens thickness, FIG. 10","[1]; guinea pig, in vivo",did not affect the anterior chamber depth and lens thickness
same,ocular irritations,"[1]; guinea pig, in vivo",neither the optical isomers of lipoic acid nor dihydrolipoic acid caused ocular irritations
same,"choroidal thickness, experimental eye vs contralateral eye, FIG. 13",[2],could effectively inhibit the decrease in choroidal thickness
"O=C(O)CCCCC1CCSS1 (stereo not drawn) [Lipoic acid, alpha-lipoic acid]","Difference in Refraction (Refraction, D) Mean",form-deprivation myopia [3]; 1 Week,-2.2 D
same,"Difference in Axial Length (AL, mm) Mean",form-deprivation myopia [3]; 1 Week,0.04364 mm
same,"Difference in Vitreous Chamber Depth (VCD, mm) Mean",form-deprivation myopia [3]; 1 Week,0.0009091 mm
same,"Difference in Axial Length (AL, mm) Mean","form-deprivation myopia [3]; 1 Week, listed as lipoic acid",0.04364 + 0.03295 mm
same,"Difference in Vitreous Chamber Depth (VCD, mm) Mean","form-deprivation myopia [3]; 1 Week, listed as lipoic acid",0.0009091 + 0.027 mm
same,"Difference in Refraction (Refraction, D) Mean",form-deprivation myopia [3]; 2 Weeks,-4.673 D
same,"Difference in Axial Length (AL, mm) Mean",form-deprivation myopia [3]; 2 Weeks,0.06364 mm
same,"Difference in Vitreous Chamber Depth (VCD, mm) Mean",form-deprivation myopia [3]; 2 Weeks,0.08545 mm
same,"Difference in Axial Length (AL, mm) Mean","form-deprivation myopia [3]; 2 Weeks, listed as lipoic acid",0.06364 ± 0.03722 mm
same,"Difference in Vitreous Chamber Depth (VCD, mm) Mean","form-deprivation myopia [3]; 2 Weeks, listed as lipoic acid",0.08545 + 0.02067 mm
same,"Difference in Refraction (Refraction, D) Mean",form-deprivation myopia [3]; Baseline,-0.04545 D
same,"Difference in Axial Length (AL, mm) Mean",form-deprivation myopia [3]; Baseline,-0.004545 mm
same,"Difference in Vitreous Chamber Depth (VCD, mm) Mean",form-deprivation myopia [3]; Baseline,0.09273 mm
same,"axial elongation and increase in vitreous chamber depth, FIG. 5","form-deprivation myopia [3]; Example 4, 0.3% R-alpha lipoic acid, subconjunctival injection, 1 and 2 weeks",could effectively inhibit the axial elongation and the increase in vitreous chamber depth
same,"refraction (interocular difference), FIG. 4","form-deprivation myopia [3]; Example 4, week 1 detection, 0.3% R-alpha lipoic acid (R-LA), periocular subconjunctival injection, compared with the other test drugs",optimal myopia treatment effect
same,"anterior chamber depth, lens thickness, corneal curvature","form-deprivation myopia [3]; guinea pig, in vivo",unaffected by the drug
same,mydriatic effect (pupil diameter),"form-deprivation myopia [3]; guinea pig, in vivo",No mydriatic effect was observed
same,"toxic reactions, ocular irritations, significant ocular abnormalities","form-deprivation myopia [3]; guinea pig, in vivo","no any toxic reactions, ocular irritations, or significant ocular abnormalities were observed"
same,myopia inhibition rate,form-deprivation myopia [3]; week 1 of treatment,42.4%
same,myopia inhibition rate,form-deprivation myopia [3]; week 2 of treatment,21.1%
same,"choroidal thickness, experimental eye vs contralateral eye","form-deprivation myopia [4]; animals of Example 2 (0.94% lipoic acid), 30 to 60 minutes after the final administration",could significantly inhibit the decrease in choroidal thickness in myopic eyes
same,"efficacy, clinical endpoint",[5],did not reach a clinical endpoint
O=C(O)CCCC[C@@H]1CCSS1 [R-alpha lipoic acid],"refraction (interocular difference), FIG. 4","form-deprivation myopia [3]; Example 4, end of the administration period (2 weeks), subconjunctival injection, 0.05% atropine sulfate, 0.3% R-LA, 0.37% ES, 0.3% PH, 0.87% ASTA, 6% BFE, vs control",significant myopia treatment effects
same,refraction indicators vs vehicle group,[1],extremely significant differences compared with the vehicle group
same,efficacy (refraction) in comparison between groups,[1],superior to that of the dihydrolipoic acid group
same,"choroidal thickness, experimental eye vs contralateral eye, FIG. 13",[2],could more significantly increase the choroidal thickness
O=C(O)CCCC[C@H]1CCSS1 [S-alpha lipoic acid],efficacy (refraction) in comparison between groups,[1],superior to that of the dihydrolipoic acid group
"CN1[C@@H]2CC[C@H]1C[C@@H](OC(=O)C(CO)c1ccccc1)C2 (stereo partly drawn) [atropine sulfate, Atropine sulfate, reference compound]","choroidal thickness, experimental eye vs contralateral eye, FIG. 13",[2],could effectively inhibit the decrease in choroidal thickness
same,effect upon discontinuation,myopia [6],rebound effect upon discontinuation
"C[N+](C)(C)CCOC(=O)CCCC[C@@H]1CCSS1 [lipoic acid choline ester, R-alpha-Lipoic acid choline ester]","axial elongation, FIG. 8-1 (B)","form-deprivation myopia [3]; Example 6, 0.5% LACE eye drops twice a day, 25 µL, vs vehicle",significantly inhibit the axial elongation
same,dose-effect relationship of myopia treatment effect,"form-deprivation myopia [3]; Example 6, LACE eye drops 0.5% and 0.15%",positively related dose-effect relationship
same,"progression of negative refraction, FIG. 8-1 (A)","form-deprivation myopia [3]; Example 6, direct eye drop instillation twice a day, 25 µL, 0.5% LACE, 0.05% atropine sulfate positive control, throughout the administration period, vs vehicle",could significantly inhibit progression of negative refraction
same,"anterior chamber depth, lens thickness, corneal curvature, FIG. 8-2","form-deprivation myopia [3]; guinea pig, in vivo",no statistical differences
same,drug-induced mydriasis,"form-deprivation myopia [3]; guinea pig, in vivo",did not observe drug-induced mydriasis
same,ocular abnormalities or mydriasis,"form-deprivation myopia [3]; guinea pig, in vivo",no ocular abnormalities or mydriasis were observed
same,"thinning of the choroid (choroidal thickness), FIG. 12","form-deprivation myopia [4]; Example 9, 0.5% lipoic acid choline ester eye drops, after completion of Example 6, vs negative control group",could effectively inhibit thinning of the choroid
same,primary endpoint,presbyopia [7],fails to meet the primary endpoint
same,bioavailability,presbyopia [8]; eye drops at a concentration of 1.5%,good bioavailability
same,safety,presbyopia [8]; in vivo,high safety
"O=C1O[C@H]([C@@H](O)CO)C(O)=C1O [vitamin C, ascorbic acid]",therapeutic effects on myopia,myopia [9],failed to achieve therapeutic effects
same,form-deprivation-induced myopia,[10],inhibit form-deprivation-induced myopia
